Assays:
[1] = system: primary human MM cells of newly diagnosed patient; assay: Primary cell viability, CellTiter-Glo, 72 h
Source text: (§1) White blood cells (WBCs) were separated from red blood cells by the Ficoll density gradient. Multiple myeloma cells were then isolated from WBCs using human CD138 affinity magnetic beads (Miltenyi Biotec; cat#130-093-062; Gaithersburg, MD, USA) following the manufacturer’s protocol. Cells were cryopreserved in 10% DMSO in FBS. Revived cells were maintained in an RPMI medium with 10% FBS for 10 days prior to treatment. […] Cells were equilibrated to RT and CellTiter-Glo (Promega; Madison, WI, USA) solution (100 μL) was added and incubated with shaking for 10 min at RT. The assay plate was then allowed to equilibrate for 5 min at RT and luminescent readings were taken on a SpectraMax® M5. Data are presented as a percentage of the vehicle control for each experimental condition, after background subtraction. Error bars represent SD for triplicate wells.

[2] = system: RPMI-8226 subcutaneous xenograft; assay: RPMI-8226 xenograft tumor model; details: after 42 days; TCH-165 100 mg/kg bid oral; bortezomib 0.375 reduced to 0.09 mg/kg i.v. 3X per week
[3] = system: primary cells from a BTZ refractory MM patient; assay: Primary cell viability, CellTiter-Glo, 72 h; details: Homo sapiens
Source text: as §1

CC(C)C[C@H](NC(=O)[C@H](Cc1ccccc1)NC(=O)c1cnccn1)B(O)O [bortezomib, reference compound]
CC50 [1]: 4 nM | average tumor volume [2]: 771.41 (±129.35) mm^3 | CC50 [3]: > 1000 nM

— article PMC9138505, “Small Molecule 20S Proteasome Enhancer Regulates MYC Protein Stability and Exhibits Antitumor Activity in Multiple Myeloma” (Biomedicines, 2022)
